Experimental data published in patent US20090275632A1, “Methods of diagnosis and treatment” (OncoMethylome Sciences SA, priority 2006, published 2009).

Tests used:
miR-124a [1] = test: Expression of precursor miR-124a by conventional RT-PCR in HCT-116 cells; format: cell-based, human; conditions: 5-aza-2-deoxycytidine (1 µM) for 72 h
Protocol: (§1) GAPDH was used as internal control. PCR products were analyzed in a 3% agarose gel. Realtime PCR analysis of miRNAs was performed as previously described (Biotechniques 39:519-525). In brief, total RNA was isolated from cell lines or tissues using Trizol reagent and the small RNA fraction was further isolated using the miRVANA kit (Ambion). 500 ng of the small RNA fraction was polyadenylated by poly(A) polymerase (PAP, Ambion) at 37° C. for 1 hr in a 6 uL reaction. After phenol-chloroform extraction and ethanol precipitation the polyadenylated small RNAs were reversed transcribed according to the manufacturer's protocols using 200U SuperScript-II Reverse Transcriptase (RT, Invitrogen) and 0.5 ug poly(T) adapter (GCG AGC ACA GM TTAATACGACTCACTATAGGTTTTTTTTTT TTV N) (SEQ ID NO:36). The small cDNAs were then treated with RNAse H at 37° C. for 1 hr and finally diluted 240 fold. Negative controls were included in both PAP and RT reactions. Moreover, two additional RT reactions were performed using half and double the input of polyadenylated small RNAs to ensure the linearity of the reverse transcription step. Finally, the melting temperature for each miRNA was experimentally determined from the thermal dissociation curves using ABI Prism 7900HT (Applied Biosystems, Foster City, Calif., USA). […]

miR-124a [2] = test: Expression of mature miR-124a by quantitative RT-PCR in HCT-116 cells; format: cell-based, human; conditions: 5-aza-2-deoxycytidine (1 µM) for 72 h
Protocol: as §1, with “Moreover, two additional RT reactions were performed using half and double the input of polyadenylated small RNAs to ensure the linearity of the reverse transcription step.” left out
Each set of PCR reactions included a dilution series of a reference cDNA to be used for quantification.

miR-124a CpG island = test: Chromatin immunoprecipitation assay for histone modification marks and methyl-CpG binding domain proteins; format: cell-based, human; conditions: HCT-116 cells, 5-aza-2-deoxycytidine (1 µM) for 72 h
Protocol: Standard ChIP assays were performed as previously described (3). In brief, cells were treated with 1% formaldehyde for 15 min. Then, chromatin was sheared with a Bioruptor™ (Diagenode) to an average length of 0.4-0.8 kb for this analysis. The following antibodies were used: anti-MeCP2 (ab3752), anti-MBD2 (ab3754), and anti-trimethyl-K4 histone H3 (ab8580) (ab1220) (Abcam) and anti-acetyl H3 (06-599) and anti-acetyl H4 (06-598) (Upstate biotechnologies). PCR amplification was performed in 20 μl with specific primers for each of the analyzed promoters.
for miR-124a1 5′-CM AGA GCC TTT GGA AGA CG-3′ (sense) (SEQ ID NO: 40) and 5′-GGAAGAGGGGTGGGTAGAAG-3′ (antisense) (SEQ ID NO: 41), for miR-124a2 5′-GCGTGGTCCTTAAAAACCTG-3′ (sense) (SEQ ID NO: 42) and 5′-CCATGCCATTTACAGCACAC-3′ (antisense) (SEQ ID NO: 43); and for miR-124a3 5′-GGA GM GTG TGG GCT CCT C-3′ (sense) (SEQ ID NO: 44) and 5′-AAT CM GGT CCG CTG TGA AC-3′ (antisense) (SEQ ID NO:45). For each promoter, the sensitivity of PCR amplification was evaluated on serial dilutions of total DNA collected after sonication (input fraction). PCR amplifications were carried out with a variable number of cycles at 94° C. for 30 s, 60° C. for 30 s and 72° C. for 30 s. The amplified DNA was separated on 2% agarose gel and visualized with ethidium bromide.

CDK6 = test: Western blot for CDK6 in HCT-116 cells; format: cell-based, human; conditions: AZA 1 µM 72 h, miR-124a precursor 100 nM RNA duplexes, 48 h after transfection
Text: (§2) Analyses of CDK6 and phosphorylated Rb expression by Western blot, immunohistochemistry and RT-PCR. We collected cells by centrifugation and washed cell pellets twice with phosphate-buffered saline buffer. Total extracts were fractionated on a SDS-PAGE gel and transferred to a polyvinylidene difluoride membrane with […] (Immobilon PSQ, Millipore). The membranes were blocked in 5% milk PBS-T (phosphate-buffered saline with 0.1% Tween-20) and immunoprobed with antibodies against CDK6 (1:1000; Cell Signaling) and P-Rb-S807/811 (1:1000; Cell Signaling). An antibody to β-actin (1:5000; Sigma) was used as a loading control. Immunoreactive bands were visualized using a chemiluminescent substrate (Amersham) after incubation of the membrane with secondary antibodies conjugated to horseradish peroxidase.

CDK6 mRNA = test: RT-PCR analyses of CDK6 mRNA in HCT-116 cells; format: cell-based, human; conditions: AZA 1 µM 72 h, miR-124a precursor 100 nM RNA duplexes, 48 h after transfection
Rb = test: Western blot for phosphorylated Rb (P-Rb-S807/811) in HCT-116 cells; format: cell-based, human; conditions: AZA 1 µM 72 h, miR-124a precursor 100 nM RNA duplexes, 48 h after transfection
Text: as §2

miR-124a [3] = test: Expression analyses of miR-124a by RT-PCR in MCF-7 breast cancer cell line; conditions: MCF-7 cells (miR-124a methylated)
[4] = listed as DNA demethylating agent

histone modification marks linked to transcriptional activity (acetylation of histones H3 and H4, trimethylation of lysine 4 of histone H3) in the miR-124a CpG island (miR-124a CpG island): the opposite scenario is observed
occupancy of the miR-124a CpG island by MBDs (MeCP2 and MBD2) (miR-124a CpG island): the opposite scenario is observed
occupancy of the miR-124a CpG island by MBDs (MeCP2 and MBD2) (miR-124a CpG island; listed as demethylating agent): release of binding by MBDs
Compound: Nc1ncn([C@H]2C[C@H](O)[C@@H](CO)O2)c(=O)n1 [AZA, 5-aza-2′-deoxycytidine]
precursor miR-124a expression (miR-124a [1]): miR-124a upregulation
precursor miR-124a expression (miR-124a [1]; [4]): restored
mature miR-124a expression (miR-124a [2]): miR-124a upregulation
mature miR-124a expression (miR-124a [2]; [4]): restored
histone modification marks linked to transcriptional activity (acetylation of histones H3 and H4, trimethylation of lysine 4 of histone H3) in the miR-124a CpG island (miR-124a CpG island; listed as demethylating agent): emergence of the histone marks of active transcription
CDK6 protein level (CDK6): reduction in CDK6 levels
CDK6 protein level (CDK6; listed as demethylating agent): CDK6 downregulation
CDK6 mRNA expression level (CDK6 mRNA): do not demonstrate any change
CDK6 mRNA expression level (CDK6 mRNA; listed as demethylating agent): no difference
phosphorylation of Rb in the residues 807 and 811 (Rb; [4]): hypophosphorylated
phosphorylation of Rb in the residues 807 and 811 (Rb; listed as demethylating drug): reduced Rb phosphorylation
miR-124a expression (miR-124a [3]): miR-124a upregulation
